Data reported in PMC3053071 (Bioorganic & medicinal chemistry letters, 2011).

Assay: Cell toxicity
Type: cell-based

C=C(C)[C@@H]1CC[C@]2(C(=O)O)CC[C@]3(C)[C@H](CC[C@@H]4[C@@]5(C)CC[C@H](OC(=O)CC(C)(C)C(=O)O)C(C)(C)[C@@H]5CC[C@]43C)[C@@H]12 [Bevirimat, 3-O-(3′,3′-dimethylsuccinyl)betulinic acid]
IC50: > 300 µM
